≈ marks a conversion by molar mass, not a printed value.
What was measured:
Type in all cases: functional
Streptococcus pneumoniae [1] = assay: Antibacterial activity against erythromycin-susceptible Streptococcus pneumoniae ATCC 49619
Streptococcus pneumoniae [2] = assay: Antibacterial activity against erythromycin-resistant Streptococcus pneumoniae B1 expressing ermB gene
Pseudomonas aeruginosa = assay: Antibacterial activity against Pseudomonas aeruginosa ATCC 27853
Streptococcus pneumoniae [3] = assay: Antibacterial activity against erythromycin-resistant Streptococcus pneumoniae A22072 expressing mefA gene
Staphylococcus aureus [4] = assay: Antibacterial activity against methicillin-susceptible Staphylococcus aureus ATCC 29213
Streptococcus pyogenes [5] = assay: Antibacterial activity against erythromycin-resistant Streptococcus pyogenes isolate R2
Escherichia coli = assay: Antibacterial activity against Escherichia coli ATCC 25922
Staphylococcus aureus [6] = assay: Antibacterial activity against erythromycin-susceptible Staphylococcus aureus ATCC 25923
Streptococcus pneumoniae [7] = assay: Antibacterial activity against erythromycin-resistant Streptococcus pneumoniae AB11 expressing ermB/mefA gene
Streptococcus pyogenes [8] = assay: Antibacterial activity against erythromycin-susceptible Streptococcus pyogenes isolate S2

SMILES	MIC (Streptococcus pneumoniae [1]) [µg/mL]	MIC (Streptococcus pneumoniae [2]) [µg/mL]	MIC (Pseudomonas aeruginosa) [µg/mL]	MIC (Streptococcus pneumoniae [3]) [µg/mL]	MIC (Staphylococcus aureus [4]) [µg/mL]	MIC (Streptococcus pyogenes [5]) [µg/mL]	MIC (Escherichia coli) [µg/mL]	MIC (Staphylococcus aureus [6]) [µg/mL]	MIC (Streptococcus pneumoniae [7]) [µg/mL]	MIC (Streptococcus pyogenes [8]) [µg/mL]
CC[C@H]1OC(=O)[C@H](C)[C@@H](O[C@H]2C[C@@](C)(OC)[C@@H](OC(=O)NCc3cn(Cc4ccc(Cl)cc4Cl)nn3)[C@H](C)O2)[C@H](C)[C@@H](O[C@@H]2O[C@H](C)C[C@H](N(C)C)[C@H]2O)[C@](C)(O)C[C@@H](C)CN(C)[C@H](C)[C@H]2OC(=O)O[C@@]21C	1 (≈ 0.945 µM)	4 (≈ 3.78 µM)	64 (≈ 60.5 µM)	1 (≈ 0.945 µM)	32 (≈ 30.2 µM)	32 (≈ 30.2 µM)	128 (≈ 121 µM)	4 (≈ 3.78 µM)	2 (≈ 1.89 µM)	0.125 (≈ 0.118 µM)
CC[C@H]1OC(=O)[C@H](C)[C@@H](O[C@H]2C[C@@](C)(OC)[C@@H](OC(=O)NCc3cn(Cc4cccc(Cl)c4)nn3)[C@H](C)O2)[C@H](C)[C@@H](O[C@@H]2O[C@H](C)C[C@H](N(C)C)[C@H]2O)[C@](C)(O)C[C@@H](C)CN(C)[C@H](C)[C@H]2OC(=O)O[C@@]21C	1 (≈ 0.977 µM)	4 (≈ 3.91 µM)	64 (≈ 62.5 µM)	0.5 (≈ 0.488 µM)	32 (≈ 31.3 µM)	16 (≈ 15.6 µM)	128 (≈ 125 µM)	4 (≈ 3.91 µM)	1 (≈ 0.977 µM)	0.06 (≈ 0.0586 µM)
CC[C@H]1OC(=O)[C@H](C)[C@@H](O[C@H]2C[C@@](C)(OC)[C@@H](OC(=O)NCc3cn(Cc4ccc([N+](=O)[O-])cc4)nn3)[C@H](C)O2)[C@H](C)[C@@H](O[C@@H]2O[C@H](C)C[C@H](N(C)C)[C@H]2O)[C@](C)(O)C[C@@H](C)CN(C)[C@H](C)[C@@H](O)[C@]1(C)O	1 (≈ 0.992 µM)	1 (≈ 0.992 µM)	32 (≈ 31.7 µM)	2 (≈ 1.98 µM)	16 (≈ 15.9 µM)	64 (≈ 63.5 µM)	32 (≈ 31.7 µM)	1 (≈ 0.992 µM)	1 (≈ 0.992 µM)	0.03 (≈ 0.0298 µM)
CC[C@H]1OC(=O)[C@H](C)[C@@H](O[C@H]2C[C@@](C)(OC)[C@@H](OC(=O)NCc3cn(Cc4ccc(Cl)cc4)nn3)[C@H](C)O2)[C@H](C)[C@@H](O[C@@H]2O[C@H](C)C[C@H](N(C)C)[C@H]2O)[C@](C)(O)C[C@@H](C)CN(C)[C@H](C)[C@@H](OC(=O)NCc2ccccc2)[C@]1(C)O	0.25 (≈ 0.221 µM)	0.25 (≈ 0.221 µM)	32 (≈ 28.3 µM)	0.125 (≈ 0.111 µM)	16 (≈ 14.1 µM)	32 (≈ 28.3 µM)	32 (≈ 28.3 µM)	0.25 (≈ 0.221 µM)	0.25 (≈ 0.221 µM)	< 0.002
CC[C@H]1OC(=O)[C@H](C)[C@@H](O[C@H]2C[C@@](C)(OC)[C@@H](OC(=O)NCc3cn(Cc4ccccc4)nn3)[C@H](C)O2)[C@H](C)[C@@H](O[C@@H]2O[C@H](C)C[C@H](N(C)C)[C@H]2O)[C@](C)(O)C[C@@H](C)CN(C)[C@H](C)[C@@H](O)[C@]1(C)O	0.5 (≈ 0.519 µM)	2 (≈ 2.08 µM)	32 (≈ 33.2 µM)	1 (≈ 1.04 µM)	8 (≈ 8.31 µM)	32 (≈ 33.2 µM)	32 (≈ 33.2 µM)	1 (≈ 1.04 µM)	4 (≈ 4.15 µM)	0.06 (≈ 0.0623 µM)
CC[C@H]1OC(=O)[C@H](C)[C@@H](O[C@H]2C[C@@](C)(OC)[C@@H](OC(=O)NCc3cn(Cc4ccccc4)nn3)[C@H](C)O2)[C@H](C)[C@@H](O[C@@H]2O[C@H](C)C[C@H](N(C)C)[C@H]2O)[C@](C)(O)C[C@@H](C)CN(C)[C@H](C)[C@@H](OC(=O)NCc2ccncc2)[C@]1(C)O	0.5 (≈ 0.456 µM)	0.125 (≈ 0.114 µM)	64 (≈ 58.3 µM)	0.06 (≈ 0.0547 µM)	32 (≈ 29.2 µM)	32 (≈ 29.2 µM)	32 (≈ 29.2 µM)	1 (≈ 0.911 µM)	0.25 (≈ 0.228 µM)	0.03 (≈ 0.0273 µM)
CC[C@H]1OC(=O)[C@H](C)[C@@H](O[C@H]2C[C@@](C)(OC)[C@@H](OC(=O)NCc3cn(Cc4ccc(C)cc4)nn3)[C@H](C)O2)[C@H](C)[C@@H](O[C@@H]2O[C@H](C)C[C@H](N(C)C)[C@H]2O)[C@](C)(O)C[C@@H](C)CN(C)[C@H](C)[C@@H](O)[C@]1(C)O	0.5 (≈ 0.512 µM)	0.5 (≈ 0.512 µM)	64 (≈ 65.5 µM)	0.5 (≈ 0.512 µM)	16 (≈ 16.4 µM)	64 (≈ 65.5 µM)	32 (≈ 32.7 µM)	1 (≈ 1.02 µM)	1 (≈ 1.02 µM)	0.03 (≈ 0.0307 µM)
CC[C@H]1OC(=O)[C@H](C)[C@@H](O[C@H]2C[C@@](C)(OC)[C@@H](OC(=O)NCc3cn(Cc4ccc(Cl)cc4)nn3)[C@H](C)O2)[C@H](C)[C@@H](O[C@@H]2O[C@H](C)C[C@H](N(C)C)[C@H]2O)[C@](C)(O)C[C@@H](C)CN(C)[C@H](C)[C@@H](O)[C@]1(C)O	0.5 (≈ 0.501 µM)	2 (≈ 2 µM)	32 (≈ 32.1 µM)	1 (≈ 1 µM)	16 (≈ 16 µM)	64 (≈ 64.1 µM)	64 (≈ 64.1 µM)	1 (≈ 1 µM)	0.5 (≈ 0.501 µM)	0.03 (≈ 0.0301 µM)
CC[C@H]1OC(=O)[C@H](C)[C@@H](O[C@H]2C[C@@](C)(OC)[C@@H](OC(=O)NCc3cn(Cc4ccc(F)cc4)nn3)[C@H](C)O2)[C@H](C)[C@@H](O[C@@H]2O[C@H](C)C[C@H](N(C)C)[C@H]2O)[C@](C)(O)C[C@@H](C)CN(C)[C@H](C)[C@H]2OC(=O)O[C@@]21C	1 (≈ 0.993 µM)	8 (≈ 7.94 µM)	64 (≈ 63.5 µM)	1 (≈ 0.993 µM)	32 (≈ 31.8 µM)	32 (≈ 31.8 µM)	128 (≈ 127 µM)	4 (≈ 3.97 µM)	4 (≈ 3.97 µM)	0.125 (≈ 0.124 µM)
